In patent US20250361485A1, “MODIFIED CD4+ T CELLS EXPRESSING IL-37 AND METHODS OF USE THEREOF” (The Regents of the University of Colorado, A Body Corporate, priority 2022, published 2025):

Assays:
[1] = molecular target: p-SMAD3 S208 (SMAD3 phosphorylated at Ser208), human, endogenous in human Treg cells (human) (UniProt P84022); experiment: flow cytometry read-out in human Treg cells with or without 50 uM Ac-YVAD-CMK (FIG. 15D), presumably flow-based PLA
[2] = tested on: caspase-1; experiment: FAM-FLICA caspase-1 activation assay in human Treg cells; format: cell-based
Procedure: Purified primary human CD4+ T cells were used for siRNA knockdown of RUNX1, RPTOR, IL37, CREB1, CHK1, NLRP2, NLRP3, NLRP4, ASC, and NLRC4, and CD4+CD25+CD127^dim T cells for siRNA knockdown of FOXP3 and IL37. Cells were purified from healthy donor PBMCs as described above and then placed in culture in complete RPMI 1640 for at least 2 h prior to siRNA transfection via nucleofection using the Amaxa P3 Primary Cell 4D-Nucleofector X Kit L (Lonza) following the manufacturer's instructions. […] Knockdowns were confirmed 24 hours after nucleofection by qRT-PCR or 48 hours later by western blot, and the relative density of the protein bands was determined using FIJI. […]
Purified lymphocytes from either humans or mice were washed with FACS buffer (5% BSA (Sigma-Aldrich) and 1×PBS), and then prepared for surface or intracellular staining, as described (Osborne and Wetzel, 2012). For surface staining, 1 μg or the manufacturer-recommended amounts of fluorescently conjugated antibody specific to the surface marker to be visualized was added to 1×10^6 cells resuspended in 100 μl of FACS buffer for 30 min at 4° C., then washed 2× with FACS buffer prior to being either analyzed or further processed. […] For measuring proliferation, cells were stained with 5-μM CFSE (Molecular Probes, Eugene, OR) prior to cell culture and analyzed using flow cytometry. […]

[3] = tested on: PAK1/2/3; experiment: PAK1/2/3 inhibition in unstimulated human Treg cells; format: cell-based; details: 1 μM
Procedure: Purified lymphocytes from either humans or mice were washed with FACS buffer (5% BSA (Sigma-Aldrich) and 1×PBS), and then prepared for surface or intracellular staining, as described (Osborne and Wetzel, 2012). For surface staining, 1 μg or the manufacturer-recommended amounts of fluorescently conjugated antibody specific to the surface marker to be visualized was added to 1×10^6 cells resuspended in 100 μl of FACS buffer for 30 min at 4° C., then washed 2× with FACS buffer prior to being either analyzed or further processed. For intracellular cytokine staining (ICS), the FOXP3 Cytoperm/Cytofix staining kit (BD Pharmingen, San Diego, CA) was used after cells were stimulated for 24 h on 1 μg/ml anti-CD3-coated plates with soluble 1 μg/ml anti-CD28 antibody or anti-CD3/CD28 conjugated Dynabeads™ (Gibco, Thermo Fisher). For measuring proliferation, cells were stained with 5-μM CFSE (Molecular Probes, Eugene, OR) prior to cell culture and analyzed using flow cytometry. Flow-based measurement of caspase-1 activation was done using the FAM-FLICA® Caspase-1 Assay kit #98 following the manufacturer's instructions (ImmunoChemistry Tech, Bloomington, MN). For flow cytometry experiments using the caspase-1 inhibitor Ac-YVAD-CMK, cells were cultured with 50 μM Ac-YVAD-CMK for 2 h prior to stimulation, 24 h (mouse), and 48 h (human), with anti-CD3/CD28 conjugated Dynabeads™ and then prepared for flow cytometry analyses. For experiments using the PAK1/2/3 inhibitor FRAX597, cells were cultured with 1 μM FRAX597 for either 24 h (flow and qRT-PCR) or 48 h (immunoblotting) and then prepared for analysis. For flow cytometry or qRT-PCR experiments using IL-6 treatment, human and mouse cells were cultured with 20 ng/ml IL-6 (Peprotech) and anti-CD3/CD28 conjugated Dynabeads™ and then prepared for analyses. […] All acquisitions were performed on a Galios® or Galios® 561 cytometer equipped with Kaluza software (Beckman-Coulter, Indianapolis, IN), and all data were analyzed with FlowJo_V10 software (Tree Star, Ashland, OR).

Sequence of UniProt P84022 (P84022 2-425 limits assumed): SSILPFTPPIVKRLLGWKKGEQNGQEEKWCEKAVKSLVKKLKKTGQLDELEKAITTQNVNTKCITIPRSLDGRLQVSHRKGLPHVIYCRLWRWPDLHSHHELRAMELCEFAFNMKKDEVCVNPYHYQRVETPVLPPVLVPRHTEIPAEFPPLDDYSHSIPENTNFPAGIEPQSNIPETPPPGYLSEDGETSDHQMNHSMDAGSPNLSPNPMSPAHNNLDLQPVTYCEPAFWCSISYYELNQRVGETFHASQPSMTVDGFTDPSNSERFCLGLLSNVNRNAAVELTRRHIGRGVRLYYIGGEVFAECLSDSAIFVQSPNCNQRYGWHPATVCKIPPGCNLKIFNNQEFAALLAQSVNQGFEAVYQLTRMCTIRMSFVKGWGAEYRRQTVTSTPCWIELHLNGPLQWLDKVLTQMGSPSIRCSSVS

“Interleukin-37 (IL-37), human, endogenous in human Treg cells (from UniProt Q9NZH6 1-218) (ligand)” gave a decrease of the interaction after caspase-1 inhibitor Ac-YVAD-CMK, against untreated Treg cells [1] of 36.5%.
In the case of `CCn1c(=O)c(-c2ccc(-c3cncs3)cc2Cl)cc2cnc(Nc3ccc(N4CCN(C)CC4)cc3)nc21` [FRAX 597], the “reduction in caspase-1 activation” value ([2]; human Treg cells, 1 μM, 24 hrs) is reported as 44%, the IL-37 localization ([3]; 24 hrs) is reported as “shift in IL-37 localization from the nucleus to the cytoplasm” and the “p-NLRC4 (S533), fold decrease” value ([3]; 24 hrs) is reported as 1.9 fold. For the same compound, the “FOXP3 gene and protein expression” value ([3]; 24 hrs (gene), 48 hrs (protein)) was “decrease”.
For “ASC: siRNA against ASC, SEQ ID NO: 1-2 (chain 1 GCUCUUCAGUUUCACACCAUU; chain 2 UGGUGUGAAACUGAAGAGCUU; chemistry not given here)”, the “caspase-1 activation compared to siRNA scramble control” value ([2]; primary human Treg cells, siRNA silencing) was −20.5%.
